Test results published in ChEMBL document CHEMBL2384899, “Synthesis and structure-activity relationships of phosphonic arginine mimetics as inhibitors of the M1 and M17 aminopeptidases from Plasmodium falciparum” (J Med Chem, 2013).

Legend:
[1] = Inhibition of Plasmodium falciparum recombinant M17 leucyl aminopeptidase expressed in Escherichia coli assessed as conversion of L-leucine-7-amido-4-methylcoumarin hydrochloride to NHMec preincubated for 10 mins prior to substrate addition by Dixon plot analysis
[2] = Inhibition of Plasmodium falciparum recombinant M1 aminopeptidase expressed in Escherichia coli assessed as conversion of L-leucine-7-amido-4-methylcoumarin hydrochloride to NHMec preincubated for 10 mins prior to substrate addition by Dixon plot analysis

With `N=C(N)Nc1cccc(C(N)P(=O)(O)O)c1` (stereo unspecified) the Ki [1] was 0.16 µM and the Ki [2] was > 1000 µM.
`N=C(N)NCCCCC(N)P(=O)(O)O` (stereo unspecified) gave a Ki [1] of 268 µM and a Ki [2] of 11 µM.
With `NCCCC(N)P(=O)(O)O` (stereo unspecified) the Ki [1] was > 1000 µM and the Ki [2] was > 1000 µM.
For `N=C(N)Nc1ccc(CC(N)P(=O)(O)O)cc1` (stereo unspecified), the Ki [1] was 63 µM and the Ki [2] was > 1000 µM.
In the case of `N=C(N)Nc1ccc(C(N)P(=O)(O)O)cc1` (stereo unspecified), the Ki [1] is reported as 1.8 µM and the Ki [2] is reported as 127 µM.
`NC(c1ccc(-n2cccn2)cc1)P(=O)(O)O` (stereo unspecified) gave a Ki [1] of 0.011 µM and a Ki [2] of 104 µM.
For `N=C(N)c1ccc(C(N)P(=O)(O)O)cc1` (stereo unspecified), the Ki [1] was > 1000 µM and the Ki [2] was 345 µM.
For `NC(N)=NCCCC(N)P(=O)(O)O` (stereo unspecified), the Ki [1] was > 1000 µM and the Ki [2] was 193 µM.
